Reference: patent publication US20230002357A1, “7-PYRIMIDINE-2-YL-OXY-INDAZOLE DERIVATIVES AND THEIR USE AS HERBICIDES” (SYNGENTA CROP PROTECTION AG, priority 2019, published 2023)

Legend:
Format in all cases: in vivo
Conditions in all cases: 250 g/ha, evaluated after 13 days
[1] = tested on: Amaranthus retoflexus (AMARE); assay: Post-emergence Test, glasshouse, AMARE
Experimental: (§1) Seeds of a variety of test species are sown in standard soil in pots Amaranthus retoflexus (AMARE), Echinochloa crus-galli (ECHCG), Setaria faberi (SETFA)). After cultivation for one day (pre-emergence) or after 8 days cultivation (post-emergence) under controlled conditions in a glasshouse (at 24/16° C., day/night; 14 hours light; 65% humidity), the plants are sprayed with an aqueous spray solution derived from the formulation of the technical active ingredient in acetone/water (50:50) solution containing 0.5% Tween™ 20 (polyoxyethelyene sorbitan monolaurate, CAS RN 9005-64-5). Compounds are applied at 250 g/ha unless otherwise stated. The test plants are then grown in a glasshouse under controlled conditions in a glasshouse (at 24/16° C., day/night; 14 hours light; 65% humidity) and watered twice daily. After 13 days for pre- and post-emergence, the test is evaluated for the percentage damage caused to the plant. The biological activities are shown in the following table on a five-point scale (5=81-100%; 4=61-80%; 3=41-60%; 2=21-40%; 1=0-20%).

ABUTH [2] = assay: Post-emergence Test, glasshouse, ABUTH
Experimental: as §1

Setaria faberi (SETFA) [3] = assay: Post-emergence Test, glasshouse, SETFA
Experimental: as §1

[4] = tested on: Echinochloa crus-galli (ECHCG); assay: Post-emergence Test, glasshouse, ECHCG
Experimental: as §1

IPOHE [5] = assay: Post-emergence Test, glasshouse, IPOHE
Experimental: as §1

[6] = tested on: Amaranthus retoflexus (AMARE); assay: Pre-emergence Test, glasshouse, AMARE
Experimental: as §1

ABUTH [7] = assay: Pre-emergence Test, glasshouse, ABUTH
Experimental: as §1

Setaria faberi (SETFA) [8] = assay: Pre-emergence Test, glasshouse, SETFA
Experimental: as §1

[9] = tested on: Echinochloa crus-galli (ECHCG); assay: Pre-emergence Test, glasshouse, ECHCG
Experimental: as §1

IPOHE [10] = assay: Pre-emergence Test, glasshouse, IPOHE
Experimental: as §1

Compound	percentage damage caused to the plant, five-point scale, AMARE [1]	percentage damage caused to the plant, five-point scale, ABUTH (ABUTH [2])	percentage damage caused to the plant, five-point scale, SETFA (Setaria faberi (SETFA) [3])	percentage damage caused to the plant, five-point scale, ECHCG [4]	percentage damage caused to the plant, five-point scale, IPOHE (IPOHE [5])	percentage damage caused to the plant, five-point scale, AMARE [6]	percentage damage caused to the plant, five-point scale, ABUTH (ABUTH [7])	percentage damage caused to the plant, five-point scale, SETFA (Setaria faberi (SETFA) [8])	percentage damage caused to the plant, five-point scale, ECHCG [9]	percentage damage caused to the plant, five-point scale, IPOHE (IPOHE [10])
Fc1cc(Cl)cnc1Oc1cccc2cnn(CCCC(F)(F)F)c12 [Compound 1.002]	2 (2=21-40%)	2 (2=21-40%)	3 (3=41-60%)	3 (3=41-60%)	1 (1=0-20%)	1 (1=0-20%)	1 (1=0-20%)	2 (2=21-40%)	2 (2=21-40%)	1 (1=0-20%)
FC(F)(F)CCCn1ccc2cccc(Oc3ncc(Cl)cn3)c21 [Compound 1.003]	3 (3=41-60%)	2 (2=21-40%)	1 (1=0-20%)	1 (1=0-20%)	2 (2=21-40%)	1 (1=0-20%)	1 (1=0-20%)	1 (1=0-20%)	1 (1=0-20%)	1 (1=0-20%)
Fc1cc(Cl)cnc1Oc1cccc2ccn(CCCC(F)(F)F)c12 [Compound 1.004]	3 (3=41-60%)	1 (1=0-20%)	1 (1=0-20%)	1 (1=0-20%)	2 (2=21-40%)	1 (1=0-20%)	1 (1=0-20%)	2 (2=21-40%)	1 (1=0-20%)	1 (1=0-20%)
FC(F)(F)CCCn1nc(Cl)c2cccc(Oc3ncc(Cl)cn3)c21 [Compound 1.005, 3-chloro-7-(5-chloropyrimidin-2-yl)oxy-1-(4,4,4-trifluorobutyl)indazole]	5 (5=81-100%)	5 (5=81-100%)	5 (5=81-100%)	5 (5=81-100%)	3 (3=41-60%)	5 (5=81-100%)	3 (3=41-60%)	5 (5=81-100%)	5 (5=81-100%)	1 (1=0-20%)
FC(F)(F)CCCn1nc(Br)c2cccc(Oc3ncc(Cl)cn3)c21 [Compound 1.006, 3-bromo-7-(5-chloropyrimidin-2-yl)oxy-1-(4,4,4-trifluorobutyl)indazole]	5 (5=81-100%)	5 (5=81-100%)	4 (4=61-80%)	5 (5=81-100%)	2 (2=21-40%)	5 (5=81-100%)	2 (2=21-40%)	5 (5=81-100%)	5 (5=81-100%)	1 (1=0-20%)
N#Cc1nn(CCCC(F)(F)F)c2c(Oc3ncc(Cl)cn3)cccc12 [Compound 1.007, 7-(5-chloropyrimidin-2-yl)oxy-1-(4,4,4-trifluorobutyl)indazole-3-carbonitrile]	5 (5=81-100%)	5 (5=81-100%)	5 (5=81-100%)	5 (5=81-100%)	4 (4=61-80%)	5 (5=81-100%)	3 (3=41-60%)	5 (5=81-100%)	5 (5=81-100%)	2 (2=21-40%)
N#Cc1cc(Cl)cnc1Oc1cccc2c(Cl)nn(CCCC(F)(F)F)c12 [Compound 1.008]	5 (5=81-100%)	4 (4=61-80%)	4 (4=61-80%)	4 (4=61-80%)	2 (2=21-40%)	4 (4=61-80%)	2 (2=21-40%)	4 (4=61-80%)	4 (4=61-80%)	1 (1=0-20%)
FC(F)(F)CCCn1nc(Cl)c2cc(Br)cc(Oc3ncc(Cl)cn3)c21 [Compound 1.010, 5-bromo-3-chloro-7-(5-chloropyrimidin-2-yl)oxy-1-(4,4,4-trifluorobutyl)indazole]	4 (4=61-80%)	1 (1=0-20%)	2 (2=21-40%)	2 (2=21-40%)	1 (1=0-20%)	4 (4=61-80%)	1 (1=0-20%)	2 (2=21-40%)	2 (2=21-40%)	1 (1=0-20%)
FC(F)(F)CCCn1ncc2cc(Br)cc(Oc3ncc(Cl)cn3)c21 [Compound 1.011, 5-bromo-7-(5-chloropyrimidin-2-yl)oxy-1-(4,4,4-trifluorobutyl)indazole]	3 (3=41-60%)	1 (1=0-20%)	1 (1=0-20%)	1 (1=0-20%)	1 (1=0-20%)	1 (1=0-20%)	1 (1=0-20%)	1 (1=0-20%)	1 (1=0-20%)	1 (1=0-20%)
COc1cc(Oc2cccc3cnn(CCCC(F)(F)F)c23)ncn1 [Compound 1.012]	1 (1=0-20%)	1 (1=0-20%)	1 (1=0-20%)	1 (1=0-20%)	1 (1=0-20%)	2 (2=21-40%)	1 (1=0-20%)	1 (1=0-20%)	1 (1=0-20%)	1 (1=0-20%)
FC(F)(F)CCCn1ncc2c(Cl)ccc(Oc3ncc(Cl)cn3)c21 [Compound 1.013, 4-chloro-7-(5-chloropyrimidin-2-yl)oxy-1-(4,4,4-trifluorobutyl)indazole]	5 (5=81-100%)	5 (5=81-100%)	5 (5=81-100%)	5 (5=81-100%)	2 (2=21-40%)	5 (5=81-100%)	2 (2=21-40%)	5 (5=81-100%)	5 (5=81-100%)	1 (1=0-20%)
N#Cc1cc(Cl)cnc1Oc1cccc2cnn(CCCC(F)(F)F)c12 [Compound 1.014]	4 (4=61-80%)	4 (4=61-80%)	3 (3=41-60%)	2 (2=21-40%)	2 (2=21-40%)	4 (4=61-80%)	1 (1=0-20%)	4 (4=61-80%)	4 (4=61-80%)	1 (1=0-20%)
